In the NIST ThermoML archive (doi:10.1016/j.fluid.2018.04.020):
Numbers after ± are expanded uncertainties.

Conditions: 101.33 kPa, Liquid, Vibrating tube method

SMILES	mass density (293.15 K)	mass density (303.15 K)	mass density (313.15 K)	mass density (323.15 K)
CCCC[N+]1(C)CCCC1.N#CC(=C=[N-])C#N [1-butyl-1-methylpyrrolidinium tricyanomethanide]	1008.9 ± 2.2 kg/m3	1003 ± 2.1 kg/m3	997.3 ± 2.1 kg/m3	991.4 ± 2.1 kg/m3
CCCC[n+]1ccc(C)cc1.N#CC(=C=[N-])C#N [1-butyl-4-methylpyridinium tricyanomethanide]	1038.3 ± 2.2 kg/m3	1032.1 ± 2.2 kg/m3	1025.7 ± 2.2 kg/m3	1019.7 ± 2.2 kg/m3
